Laboratory results: PubChem BioAssay (NCI)
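Growth conditions: 96-well plates. Treatment: test compound, 48 hours, 5 concentrations. Analysis: linear interpolation between bracketing concentrations; unreached endpoints set to highest concentration. GI50 is the concentration that inhibits growth by half. TGI: total growth inhibition.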

Columns and labels:
Assay in all cases: NCI tumour cell line growth inhibition, 48 h
786-0 renal = system: 786-0 renal
A498 renal = system: A498 renal
A549 NSCLC = system: A549 NSCLC
ACHN renal = system: ACHN renal
BT-549 breast = system: BT-549 breast
CAKI-1 renal = system: CAKI-1 renal
COLO 205 colon = system: COLO 205 colon
DU-145 prostate = system: DU-145 prostate
EKVX NSCLC = system: EKVX NSCLC
HCC-2998 colon = system: HCC-2998 colon
HCT-116 colon = system: HCT-116 colon
HCT-15 colon = system: HCT-15 colon
HL-60(TB) leukemia = system: HL-60(TB) leukemia
HOP-62 NSCLC = system: HOP-62 NSCLC
HOP-92 NSCLC = system: HOP-92 NSCLC
HS 578T breast = system: HS 578T breast
HT29 colon = system: HT29 colon
IGROV1 ovarian = system: IGROV1 ovarian
K-562 leukemia = system: K-562 leukemia
KM12 colon = system: KM12 colon
LOX IMVI melanoma = system: LOX IMVI melanoma
M14 melanoma = system: M14 melanoma
MALME-3M melanoma = system: MALME-3M melanoma
MCF7 breast = system: MCF7 breast
MDA-MB-231 breast = system: MDA-MB-231 breast
MDA-MB-435 = system: MDA-MB-435
MOLT-4 leukemia = system: MOLT-4 leukemia
NCI-H226 lung = system: NCI-H226 lung
NCI-H460 lung = system: NCI-H460 lung
NCI-H522 lung = system: NCI-H522 lung
NCI/ADR-RES ovarian = system: NCI/ADR-RES ovarian
OVCAR-4 ovarian = system: OVCAR-4 ovarian
OVCAR-5 ovarian = system: OVCAR-5 ovarian
OVCAR-8 ovarian = system: OVCAR-8 ovarian
PC-3 prostate = system: PC-3 prostate
SF-268 CNS = system: SF-268 CNS
SF-295 CNS = system: SF-295 CNS
SF-539 CNS = system: SF-539 CNS
SK-MEL-2 melanoma = system: SK-MEL-2 melanoma
SK-MEL-28 melanoma = system: SK-MEL-28 melanoma
SK-MEL-5 melanoma = system: SK-MEL-5 melanoma
SK-OV-3 ovarian = system: SK-OV-3 ovarian
SN12C renal = system: SN12C renal
SNB-19 CNS = system: SNB-19 CNS
SNB-75 CNS = system: SNB-75 CNS
SW-620 colon = system: SW-620 colon
T-47D breast = system: T-47D breast
TK-10 renal = system: TK-10 renal
U251 CNS = system: U251 CNS
UACC-257 melanoma = system: UACC-257 melanoma
UACC-62 melanoma = system: UACC-62 melanoma
UO-31 renal = system: UO-31 renal

## Cc1ccc(C2CC(c3ccc(Nc4nc(NCCO)nc(Nc5ccc(Cl)cc5)n4)cc3)=Nc3c(N)nc(N)nc3N2)cc1 (centres undefined)
786-0 renal
  GI50: 1640 nM
  TGI: 3060 nM
A498 renal
  GI50: 3850 nM
  TGI: 17700 nM
A549 NSCLC
  GI50: 1740 nM
  TGI: 3440 nM
ACHN renal
  GI50: 1720 nM
  TGI: 3090 nM
BT-549 breast
  GI50: 1730 nM
  TGI: 3140 nM
CAKI-1 renal
  GI50: 1640 nM
  TGI: 3060 nM
COLO 205 colon
  GI50: 1670 nM
  TGI: 3190 nM
DU-145 prostate
  GI50: 1760 nM
  TGI: 3190 nM
EKVX NSCLC
  GI50: 1550 nM
  TGI: 2970 nM
HCC-2998 colon
  GI50: 1550 nM
  TGI: 2930 nM
HCT-116 colon
  GI50: 1620 nM
  TGI: 2970 nM
HCT-15 colon
  GI50: 1480 nM
  TGI: 2950 nM
HL-60(TB) leukemia
  GI50: 1710 nM
  TGI: 4710 nM
HOP-62 NSCLC
  GI50: 1680 nM
  TGI: 3200 nM
HOP-92 NSCLC
  GI50: 1300 nM
  TGI: 2860 nM
HS 578T breast
  GI50: 1790 nM
  TGI: 4360 nM
HT29 colon
  GI50: 1780 nM
  TGI: 3560 nM
IGROV1 ovarian
  GI50: 1650 nM
  TGI: 3140 nM
K-562 leukemia
  GI50: 1340 nM
  TGI: 3920 nM
KM12 colon
  GI50: 1970 nM
  TGI: 3860 nM
LOX IMVI melanoma
  GI50: 1650 nM
  TGI: 3070 nM
M14 melanoma
  GI50: 1840 nM
  TGI: 3320 nM
MALME-3M melanoma
  GI50: 1700 nM
  TGI: 3370 nM
MCF7 breast
  GI50: 1460 nM
  TGI: 3010 nM
MDA-MB-231 breast
  GI50: 1670 nM
  TGI: 3260 nM
MDA-MB-435
  GI50: 1730 nM
  TGI: 3130 nM
MOLT-4 leukemia
  GI50: 1380 nM
  TGI: 3890 nM
NCI-H226 lung
  GI50: 16700 nM
  TGI: 38400 nM
NCI-H460 lung
  GI50: 1800 nM
  TGI: 3390 nM
NCI-H522 lung
  GI50: 1720 nM
  TGI: 3470 nM
NCI/ADR-RES ovarian
  GI50: 1730 nM
  TGI: 3480 nM
OVCAR-4 ovarian
  GI50: 1850 nM
  TGI: 3630 nM
OVCAR-5 ovarian
  GI50: 1620 nM
  TGI: 3010 nM
OVCAR-8 ovarian
  GI50: 1800 nM
  TGI: 3690 nM
PC-3 prostate
  GI50: 1740 nM
  TGI: 3600 nM
SF-268 CNS
  GI50: 1810 nM
  TGI: 3640 nM
SF-295 CNS
  GI50: 1630 nM
  TGI: 3030 nM
SF-539 CNS
  GI50: 1570 nM
  TGI: 2970 nM
SK-MEL-2 melanoma
  GI50: 1810 nM
  TGI: 3400 nM
SK-MEL-28 melanoma
  GI50: 1770 nM
  TGI: 3160 nM
SK-MEL-5 melanoma
  GI50: 1560 nM
  TGI: 2910 nM
SK-OV-3 ovarian
  GI50: 2690 nM
  TGI: 7330 nM
SN12C renal
  GI50: 1790 nM
  TGI: 3380 nM
SNB-19 CNS
  GI50: 1570 nM
  TGI: 3000 nM
SNB-75 CNS
  GI50: 1620 nM
  TGI: 3310 nM
SW-620 colon
  GI50: 1790 nM
  TGI: 3310 nM
T-47D breast
  GI50: 1670 nM
  TGI: 3650 nM
TK-10 renal
  GI50: 1900 nM
  TGI: 3380 nM
U251 CNS
  GI50: 1600 nM
  TGI: 3010 nM
UACC-257 melanoma
  GI50: 1840 nM
  TGI: 3460 nM
UACC-62 melanoma
  GI50: 1820 nM
  TGI: 3390 nM
UO-31 renal
  GI50: 1640 nM
  TGI: 3000 nM
